Assay results from patent US4159328A, “Tetrahydro-1,3,5-thiadiazin-4-one derivative” (Nihon Nohyaku Co., Ltd., priority 1977, dated 1979).
Like-named read-outs stand apart in the source and are kept apart here.

Key:
Assay type in all cases: in vivo
[1] = tested on: two-spotted spider mite (Tetranychus urticae Koch); assay: Test Example 3: activity to two-spotted spider mite; conditions: 120 h, 1,000 ppm, 5 days after treatment
From the text: Activity to two-spotted spider mite (Tetranychus urticae Koch).
Testing method: Two-spotted spider mites were set free on the pot-planted soybean in a greenhouse. On the next day, a test composition of 1,000 ppm concentration was sprayed over the soybean by means of a spray gun. Two days or five days after the treatment, dead-and-survival was inspected to calculate the mortality.

[2] = tested on: larvae of brown planthopper (Nilaparvata lugens Stahl); assay: Test Example 1: insecticidal activity against larvae of brown planthopper; conditions: 120 h, third-instar larvae, 25° C., 5 days after treatment
Description: Insecticidal activity against larvae of brown planthopper (Nilaparvata lugens Stahl).
(§1) Testing method: Five rice seedlings of the 1.5 leaf age were dipped in a test composition of 400 ppm concentration for 30 seconds. After air-drying, the seedlings were placed in a glass tube containing 1 ml of water and infested with five third-instar larvae of brown planthopper. The glass tube was left standing in a constant temperature cabinet at 25° C. and 5 or 7 days after the treatment, dead-and-survival was observed. Mortality was calculated from the results of 3-replication test.

[3] = tested on: larvae of 28-spotted lady beetle (Epilachna vigintioctopunctana Fabricius); assay: Test Example 8: insecticidal activity against larvae of 28-spotted lady beetle; conditions: 120 h
Description: Insecticidal activity against larvae of 28-spotted lady beetle (Epilachna vigintioctopunctana Fabricius).
Testing method: Leaflets of tomato grown in a greenhouse were dipped in a test composition of 100 ppm concentration for 30 seconds and after that the leaflets were dried by air. In a Petri dish covered on the bottom with a piece of filter paper, were introduced 1 ml of water and three treated tomato leaflets. After having been infested with seven second-instar larvae of 28-spotted lady beetle, the Petri dish was left standing in a constant temperature cabinet at 25° C. Five days after the treatment, the dead-and-survival was inspected to calculate the mortality (2-replication test).

[4] = tested on: larvae of white-backed planthopper (Sogatella furcifera Horvath); assay: Test Example 2: insecticidal activity against larvae of white-backed planthopper; conditions: 168 h, 400 ppm, first-instar larvae, 25° C., seven days after treatment, read-out: Mortality
Description: Insecticidal activity against larvae of white-backed planthopper (Sogatella furcifera Horvath).
as §1, with “first-instar” for “third-instar”, “white-backed” for “brown”, “seven” for “5 or 7”

[5] = tested on: larvae of house mosquito (Culex pipiens pallens Coquillett); assay: Test Example 6: insecticidal activity to larvae of house mosquito; conditions: 120 h
Description: Insecticidal activity to larvae of house mosquito (Culex pipiens pallens Coquillett).
Test method: In a 200-ml beaker, was placed together with a feed 100 ml of a test composition diluted with deionized water to 10 ppm concentration. The test composition was infested with 20 first-instar larvae of house mosquito and the beaker was covered with a sheet of Japanese paper. The beaker was kept in a constant temperature cabinet at 25° C. Five days after the treatment, the dead-and-survival was inspected to calculate the mortality.

[6] = tested on: larvae of green rice leafhopper (Nephotettix cincticeps Uhler); assay: Test Example 5: activity against larvae of green rice leafhopper; conditions: 168 h, 400 ppm, second-instar larvae, 25° C., seven days after treatment, read-out: Mortality
Description: Activity against larvae of green rice leafhopper (Nephotettix cincticeps Uhler).
Testing method: Five rice seedlings of the 1.5 leaf age were dipped in a test composition of 400 ppm concentration for 30 seconds. After air-drying, the seedlings were placed in a glass tube containing 1 ml of water and infested with five second-instar larvae of green rice leafhopper. The glass tube was left standing in a constant temperature cabinet at 25° C. Seven days after the treatment, dead-and-survivalwas inspected to calculate the mortality (3-replication test).

[7] = 100 ppm, second-instar larvae, 25° C., five days, read-out: Mortality

| SMILES | mortality at 1000 ppm [1] | mortality at 400 ppm [2] | mortality at 100 ppm [3] | mortality at 400 ppm [4] | mortality at 10 ppm [5] | mortality at 400 ppm [6] | mortality at 100 ppm [3, 7] |
| --- | --- | --- | --- | --- | --- | --- | --- |
| CC(C)N1C(=O)N(c2ccc(Cl)cc2Cl)CSC1=NC(C)(C)C [Compound 399] | 80% | 100% | 100% |  |  |  |  |
| CCC(C)N=C1SCN(c2ccc(F)cc2)C(=O)N1C(C)CC (stereo not shown) [Compound 283] | 70% | 100% | 90% | 100% | 70% | 90% |  |
| CN=C1SCN(c2ccc(Br)cc2)C(=O)N1C [Compound 291] | 100% | 100% | 100% | 100% | 70% | 100% |  |
| CCC(C)N=C1SCN(c2ccc(Cl)cc2)C(=O)N1C(C)CC (stereo not shown) [Compound 197] | 80% | 100% |  | 90% | 100% |  |  |
| CC(C)N1C(=O)N(c2ccc([N+](=O)[O-])cc2)CSC1=NC(C)(C)C [Compound 364] | 60% | 100% | 80% |  |  |  |  |
| CC(C)N=C1SCN(c2ccc(Cl)c(Cl)c2)C(=O)N1Cc1ccccc1 [Compound 422] | 100% | 60% | 90% |  |  |  |  |
| CCC(C)N1C(=O)N(c2ccc(F)cc2)CSC1=NC(C)(C)C (stereo not shown) [Compound 284] | 100% | 100% | 100% | 100% | 100% | 100% |  |
| CCCCN=C1SCN(c2ccccc2)C(=O)N1CCCC [Compound 146] |  |  | 100% |  | 100% |  |  |
| CC(C)N=C1SCN(c2ccccc2Cl)C(=O)N1C(C)C [Compound 244, 2-Isopropylimino-3-isopropyl-5-(o-chlorophenyl)-tetrahydro-1,3,5-thiadiazin-4-one] | 70% | 100% |  | 100% | 100% | 100% |  |
| COc1ccc(N2CSC(=NC(C)C)N(C(C)C)C2=O)cc1 [Compound 352] |  | 100% | 100% | 100% | 100% | 100% |  |
| Cc1cccc(N2CSC(=NC(C)C)N(C(C)C)C2=O)c1 [Compound 325] |  | 100% | 100% | 100% | 100% | 100% |  |
| CCC(C)N1C(=O)N(c2ccccc2C)CSC1=NC(C)(C)C (stereo not shown) [Compound 303] | 80% | 100% | 100% | 100% |  | 100% |  |
| CCCN1C(=O)N(c2cc(Cl)cc(Cl)c2)CSC1=NC(C)C [Compound 405] |  |  | 90% |  |  |  |  |
| CC(C)N1C(=O)N(c2ccccc2Cl)CSC1=NC(C)(C)C [Compound 245, 2-t-butylimino-3-isopropyl-5-(o-chlorophenyl)-tetrahydro-1,3,5-thiadiazin-4-one] | 100% | 100% | 90% | 100% | 100% | 100% |  |
| CCC(C)N=C1SCN(c2ccccc2)C(=O)N1c1ccccc1 (stereo not shown) [Compound 163, 2-s-Butylimino-3,5-diphenyl-tetrahydro-1,3,5-thiadiazin-4-one] |  |  |  |  |  |  | 60% |
| CCCN1C(=O)N(c2ccc(C)cc2)CSC1=NC(C)C [Compound 314] | 100% | 100% | 100% |  | 100% |  |  |
| CC(C)N=C1SCN(c2cccc(Cl)c2)C(=O)N1C(C)C [Compound 220] |  | 100% | 100% | 100% | 80% | 100% |  |
| CCCCN1C(=O)N(c2ccccc2)CSC1=NC(C)C [Compound 147] |  | 100% | 100% |  | 100% |  |  |
| CCN=C1SCN(c2cc(Cl)cc(Cl)c2)C(=O)N1CC [Compound 404] | 100% |  | 90% |  |  |  |  |
| CC(C)N=C1SCN(c2ccc(F)cc2)C(=O)N1C(C)C [Compound 285] | 100% | 100% | 80% | 100% | 100% | 100% |  |
| CC(C)N1C(=O)N(c2ccc(F)cc2)CSC1=NC(C)(C)C [Compound 282, 2-t-butylimino-3-isopropyl 5-(p-fluorophenyl)-tetrahydro-1,3,5-thiadiazin-4-one] | 80% | 100% |  | 100% | 90% | 100% |  |
| CCC(C)N1C(=O)N(c2ccc(OC)cc2)CSC1=NC(C)(C)C (stereo not shown) [Compound 355, 2-t-butylimino-3-s-butyl-5-(p-methoxyphenyl)-tetrahydro-1,3,5-thiadiazin-4-one] | 100% | 100% | 100% | 100% | 90% | 100% |  |
| CCC(C)N1C(=O)N(c2cccc(Cl)c2)CSC1=NC(C)(C)C (stereo not shown) [Compound 225, 2-t-Butylimino-3-s-butyl-5-(m-chlorophenyl)-tetrahydro-1,3,5-thiadiazin-4-one] | 100% | 100% |  | 100% | 100% | 90% |  |
| CC(C)N=C1SCN(c2ccc(Cl)cc2Cl)C(=O)N1C(C)C [Compound 398] | 80% | 100% | 80% |  |  |  |  |
| CCN1C(=O)N(c2ccc(Cl)c(Cl)c2)CSC1=NC(C)(C)C [Compound 418] | 70% | 60% |  |  |  |  | 70% |
| CCC(C)N=C1SCN(c2cc(Cl)cc(Cl)c2)C(=O)N1C(C)CC (stereo not shown) [Compound 411] | 100% | 60% | 100% |  |  |  |  |
| C=CCN1C(=O)N(c2cc(Cl)cc(Cl)c2)CSC1=NC(C)C [Compound 412, 2-Isopropylimino-3-allyl-5-(3,5-dichlorophenyl)-tetrahydro-1,3,5-thiadiazin-4-one] | 100% | 100% | 100% |  |  |  |  |
| CCc1cccc(CC)c1N1CSC(=NC(C)C)N(C(C)C)C1=O [Compound 395, 2-Isopropylimino-3-isopropyl-5-(2,6-diethylphenyl)-tetrahydro-1,3,5-thiadiazin-4-one] | 80% | 100% |  | 90% | 100% | 100% |  |
| CC(C)N1C(=O)N(c2ccc(Cl)cc2)CSC1=NC(C)(C)C [Compound 196, 2-t-Butylimino-3-isopropyl-5-(p-chlorophenyl)-tetrahydro-1,3,5-thiadiazin-4-one] | 100% | 100% |  | 90% |  |  |  |
| CCC(C)N=C1SCN(c2ccccc2Cl)C(=O)N1C(C)CC (stereo not shown) [Compound 248] | 100% | 100% |  |  | 90% | 100% |  |
